{
  "source": "patent US8663616B2",
  "about": "“Enzymatic peracid generation for use in oral care products” (E I du Pont de Nemours and Company, priority 2010, dated 2014)",
  "key": {"[1]": {"test": "One-step bleaching of stained bovine enamel with targeted perhydrolase (Example 13)", "conditions": "0.1% PAA", "protocol": "(§1) Whiteness index (WI) is defined by the International Commission on Illumination (CIE) and described in ASTM method E313-05 and calculated for D65/10 incident light as: WI=Y+800*(0.3138−x)+1700*(0.3310−y) Where Y, x, and y are the luminance factor and the chromaticity coordinates respectively of the enamel substrate.\n(§2) Bovine enamel incisors were prepared as indicated in Example 1. Stained bovine enamel blocks were hydrated in water at least 1 h prior to use to stabilize the color of the substrate. The color for each enamel block was measured after hydration prior to the start of the experiment. Two enamel samples were treated for each solution type. The solutions used were a buffer only control, 0.1% Peracetic Acid, a perhydrolase composition including 0.52 μM EZ-7 (C277S with enamel binding domain; SEQ ID NO: 429), 100 mM triacetin and 32.6 mM H2O2. All solutions were prepared in 100 mM sodium phosphate buffer, pH 7.2. All solutions were freshly prepared for each treatment point. The enzyme-triacetin-H2O2 combination was mixed immediately before enamel exposure. After each treatment step, each enamel block was rinsed with water and a color measurement was obtained. A treatment time of 30 min was repeated 4 times for each set of enamel substrates. The concentration of peracetic acid in solution after a 30 min treatment was evaluated by colorimetric detection of ABTS oxidation."}, "[2]": {"test": "Peracetic acid in treatment solution by ABTS absorbance (Example 12)", "type": "biochemical", "conditions": "1:100 dilution into ABTS reagent", "source_text": "(§3) The purpose of this example is to show the tooth bleaching effect of enzymatic generated peracetic acid in a one-step application and compare to the performance achieved with chemically derived peracetic acid. Two methods were developed to use a perhydrolytic enzyme (CE-7 perhydrolase) system to achieve the target level of tooth bleaching. The first method (referred to herein as the “one-step approach”) comprises combining different amounts of at least one CE-7 perhydrolase with triacetin (an example of a suitable ester substrate) and hydrogen peroxide to generate peracetic acid using model stained enamel substrates. Bovine enamel incisors were prepared as indicated in Example 1. Stained bovine enamel blocks were hydrated in water at least 1 hr prior to use to stabilize the color of the substrate. The color for each enamel block was measured after hydration prior to the start of the experiment. Three enamel samples were treated for each solution type. The solutions used were a buffer only control, 2.5% H2O2, 1% peracetic acid, a perhydrolase composition including 10 μM EZ-1 (C277S; SEQ ID NO: 424), 100 mM triacetin and 250 mM H2O2 and a no enzyme control of 100 mM triacetin and 250 mM H2O2. All solutions were prepared in 500 mM sodium phosphate buffer, pH 7.2. The high buffer strength was necessary to maintain the 1% peracetic acid solution at neutral pH. All solutions were freshly prepared for each treatment point. The enzyme-triacetin-H2O2 combination and triacetin-H2O2 combination was mixed immediately before enamel exposure. After each treatment step, each enamel block was rinsed with water and a color measurement was obtained. A total treatment time of 61 min was used with durations of exposure of 1 min, 5 min, 10 min, 15 min and 30 min. The concentration of peracetic acid in solution after the 1 min, 10 min and 30 min treatments was evaluated by colorimetric detection of ABTS oxidation.\n(§4) Determination of the peracetic acid (PAA) concentration in the reaction mixtures by a colorimetric method was performed according to the method described by Dinu et. al. (supra). A reagent solution of 1 mM 2,2′-azino-bis(3-ethylbenzothiazoline)-6-sulfonate (ABTS), 50 μM potassium iodide in 125 mM potassium citrate buffer at pH 5.0 was prepared. […] The solution was analyzed for absorbance at 405 nm using a Microplate reader. A comparison of relative amounts of peracetic acid in solution was determined by comparing absorbance values directly."}, "[3]": {"test": "Peracetic acid in treatment solution by ABTS (Example 13)", "type": "biochemical", "conditions": "after 30 min treatment", "protocol": "as §4, §2"}, "[4]": {"test": "One-step bleaching of stained bovine enamel with perhydrolase system (Example 12)", "source_text": "as §1, §3"}, "[5]": {"test": "Peracetic acid vs hydrogen peroxide bleaching of coffee/tea stained bovine enamel (whiteness index)", "conditions": "for ΔWI: 0 to 61 min; for Whiteness Index 0 min: before exposure", "source_text": "This example describes the use of peracetic acid to achieve a bleaching effect on model stained enamel surfaces. Bovine enamel incisors were obtained from SE Dental (Baton Rouge, La.). Teeth were sectioned and cut into enamel slabs approximately 7 mm on each side using a DREMEL® rotary saw (Robert Bosch Power Tool Corporation; Chicago, Ill.) with a diamond blade. The enamel slabs were cleaned and lightly polished to remove surface debris. The enamel was pretreated with a mixture of coffee and tea for 1-5 days in order to stain to a color similar to human stained teeth.\nEach enamel block was hydrated in water for at least 1 hr prior to use. Color measurements for the substrate were obtained prior to exposure to test solutions. Solutions of peracetic acid were prepared from a 32% stock in 500 mM sodium phosphate buffer, pH 7.2. A solution of 2.5% H2O2 was also prepared in the same buffer. Multiple enamel blocks were exposed to each solution for 1 min followed by additional exposures of 5 min, 10 min, 15 min and 30 min. For each treatment, a fresh solution of peracetic acid and hydrogen peroxide was prepared from the stock solutions. After each treatment the enamel blocks were rinsed with water and measured with a Konica-Minolta 2600d spectrophotometer.\nas §1"}},
  "data": [
    {"molecule": "CC(=O)OO", "note": "[PAA, peracetic acid]", "values": [
      {"measurement": "Whiteness Index 30 min", "setting": "[1]", "value": "−101.9"},
      {"measurement": "Whiteness Index 60 min", "setting": "[1]", "value": "−91.9"},
      {"measurement": "Whiteness Index 90 min", "setting": "[1]", "value": "−80.2"},
      {"measurement": "Whiteness Index 120 min", "setting": "[1]", "value": "−70.8"},
      {"measurement": "ΔWI", "setting": "[1]; 0 to 120 min", "value": 55.0},
      {"measurement": "Whiteness Index 0 min", "setting": "[1]; before treatment, 100 mM sodium phosphate pH 7.2, average of two substrates", "value": "−125.8"},
      {"measurement": "Absorbance 405 nm, 1 min", "setting": "[2]; peracetic acid at end of 1 min treatment", "value": 2.579},
      {"measurement": "Absorbance 405 nm, 10 min", "setting": "[2]; peracetic acid at end of 10 min treatment", "value": 1.863},
      {"measurement": "Absorbance 405 nm, 30 min", "setting": "[2]; peracetic acid at end of 30 min treatment", "value": 2.874},
      {"measurement": "PAA (ppm)", "setting": "[3]", "value": 920, "unit": "ppm"},
      {"measurement": "Absorbance 405 nm Tooth2", "setting": "[3]; 1:10 dilution into ABTS reagent", "value": 1.043},
      {"measurement": "Absorbance 405 nm Tooth1", "setting": "[3]; 1:10 dilution into ABTS reagent, 0.1% PAA or 0.52 μM EZ-7/100 mM triacetin/32.6 mM H2O2", "value": 1.103},
      {"measurement": "Whiteness Index 0 min", "setting": "[4]; before treatment, 2.5% H2O2, 100 mM triacetin/250 mM H2O2, 1% PAA, 10 μM EZ-1/100 mM triacetin/250 mM H2O2, pH 7.2", "value": "−145.7"},
      {"measurement": "ΔWI", "setting": "[4]; one-step, 0 to 61 min", "value": 86.3},
      {"measurement": "Whiteness Index 1 min", "setting": "[4]; one-step, cumulative treatment 1 min", "value": "−119.6"},
      {"measurement": "Whiteness Index 6 min", "setting": "[4]; one-step, cumulative treatment 6 min", "value": "−73.4"},
      {"measurement": "Whiteness Index 16 min", "setting": "[4]; one-step, cumulative treatment 16 min", "value": "−62.9"},
      {"measurement": "Whiteness Index 31 min", "setting": "[4]; one-step, cumulative treatment 31 min", "value": "−59.0"},
      {"measurement": "Whiteness Index 61 min", "setting": "[4]; one-step, cumulative treatment 61 min", "value": "−59.4"},
      {"measurement": "ΔWI", "setting": "[5]; Table 1, 2.5% H2O2 or 0.5% PAA", "value": 90.8},
      {"measurement": "Whiteness Index 1 min", "setting": "[5]; Table 1, 2.5% H2O2 or 0.5% PAA, cumulative exposure 1 min", "value": "−111.6"},
      {"measurement": "Whiteness Index 6 min", "setting": "[5]; Table 1, 2.5% H2O2 or 0.5% PAA, cumulative exposure 6 min", "value": "−80.7"},
      {"measurement": "Whiteness Index 16 min", "setting": "[5]; Table 1, 2.5% H2O2 or 0.5% PAA, cumulative exposure 16 min", "value": "−56.5"},
      {"measurement": "Whiteness Index 31 min", "setting": "[5]; Table 1, 2.5% H2O2 or 0.5% PAA, cumulative exposure 31 min", "value": "−44.5"},
      {"measurement": "Whiteness Index 61 min", "setting": "[5]; Table 1, 2.5% H2O2 or 0.5% PAA, cumulative exposure 61 min", "value": "−38.3"},
      {"measurement": "Whiteness Index 0 min", "setting": "[5]; Table 1, 2.5% H2O2 or 0.5% PAA, 500 mM sodium phosphate pH 7.2", "value": "−129.1"},
      {"measurement": "Whiteness Index 1 min", "setting": "[5]; Table 2, 0.05% PAA", "value": "−97.1"},
      {"measurement": "Whiteness Index 6 min", "setting": "[5]; Table 2, 0.05% PAA", "value": "−93.1"},
      {"measurement": "Whiteness Index 16 min", "setting": "[5]; Table 2, 0.05% PAA", "value": "−70.1"},
      {"measurement": "Whiteness Index 31 min", "setting": "[5]; Table 2, 0.05% PAA", "value": "−59.0"},
      {"measurement": "Whiteness Index 61 min", "setting": "[5]; Table 2, 0.05% PAA", "value": "−34.7"},
      {"measurement": "ΔWI", "setting": "[5]; Table 2, 0.05% PAA", "value": 68.7},
      {"measurement": "Whiteness Index 0 min", "setting": "[5]; Table 2, 0.05% PAA", "value": "−103.4"},
      {"measurement": "Whiteness Index 1 min", "setting": "[5]; Table 2, 0.2% PAA", "value": "−85.5"},
      {"measurement": "Whiteness Index 6 min", "setting": "[5]; Table 2, 0.2% PAA", "value": "−67.0"},
      {"measurement": "Whiteness Index 16 min", "setting": "[5]; Table 2, 0.2% PAA", "value": "−47.5"},
      {"measurement": "Whiteness Index 31 min", "setting": "[5]; Table 2, 0.2% PAA", "value": "−31.7"},
      {"measurement": "Whiteness Index 61 min", "setting": "[5]; Table 2, 0.2% PAA", "value": "−16.2"},
      {"measurement": "ΔWI", "setting": "[5]; Table 2, 0.2% PAA", "value": 74.4},
      {"measurement": "Whiteness Index 0 min", "setting": "[5]; Table 2, 0.2% PAA", "value": "−90.6"},
      {"measurement": "Whiteness Index 1 min", "setting": "[5]; Table 2, 0.5% PAA", "value": "−86.6"},
      {"measurement": "Whiteness Index 6 min", "setting": "[5]; Table 2, 0.5% PAA", "value": "−64.1"},
      {"measurement": "Whiteness Index 16 min", "setting": "[5]; Table 2, 0.5% PAA", "value": "−46.4"},
      {"measurement": "Whiteness Index 31 min", "setting": "[5]; Table 2, 0.5% PAA", "value": "−32.7"},
      {"measurement": "Whiteness Index 61 min", "setting": "[5]; Table 2, 0.5% PAA", "value": "−24.7"},
      {"measurement": "ΔWI", "setting": "[5]; Table 2, 0.5% PAA", "value": 72.8},
      {"measurement": "Whiteness Index 0 min", "setting": "[5]; Table 2, 0.5% PAA", "value": "−97.5"},
      {"measurement": "Whiteness Index 1 min", "setting": "[5]; Table 2, 1% PAA", "value": "−89.3"},
      {"measurement": "Whiteness Index 16 min", "setting": "[5]; Table 2, 1% PAA", "value": "−36.0"},
      {"measurement": "Whiteness Index 31 min", "setting": "[5]; Table 2, 1% PAA", "value": "−20.6"},
      {"measurement": "Whiteness Index 61 min", "setting": "[5]; Table 2, 1% PAA", "value": "−5.1"},
      {"measurement": "ΔWI", "setting": "[5]; Table 2, 1% PAA", "value": 97.7},
      {"measurement": "Whiteness Index 0 min", "setting": "[5]; Table 2, 1% PAA", "value": "−102.8"},
      {"measurement": "bleaching of stained enamel (in words)", "setting": "[5]; compared to buffer and hydrogen peroxide controls", "value": "effective bleaching agent"}
    ]}
  ]
}
